Experiments:
rabbit endometrium = test: McPhail assay in estrogen-primed immature rabbits; format: in vivo; details: progesterone alone (method: MPA 0.15mg/kg/day)
Progesterone Receptor = target: T1, Progesterone Receptor (Homo sapiens, UniProt P06401); test: Alkaline phosphatase assay in T47D cells; format: cell-based; details: 20 h, progesterone at 10nM
T1 sequence (P06401 1-933): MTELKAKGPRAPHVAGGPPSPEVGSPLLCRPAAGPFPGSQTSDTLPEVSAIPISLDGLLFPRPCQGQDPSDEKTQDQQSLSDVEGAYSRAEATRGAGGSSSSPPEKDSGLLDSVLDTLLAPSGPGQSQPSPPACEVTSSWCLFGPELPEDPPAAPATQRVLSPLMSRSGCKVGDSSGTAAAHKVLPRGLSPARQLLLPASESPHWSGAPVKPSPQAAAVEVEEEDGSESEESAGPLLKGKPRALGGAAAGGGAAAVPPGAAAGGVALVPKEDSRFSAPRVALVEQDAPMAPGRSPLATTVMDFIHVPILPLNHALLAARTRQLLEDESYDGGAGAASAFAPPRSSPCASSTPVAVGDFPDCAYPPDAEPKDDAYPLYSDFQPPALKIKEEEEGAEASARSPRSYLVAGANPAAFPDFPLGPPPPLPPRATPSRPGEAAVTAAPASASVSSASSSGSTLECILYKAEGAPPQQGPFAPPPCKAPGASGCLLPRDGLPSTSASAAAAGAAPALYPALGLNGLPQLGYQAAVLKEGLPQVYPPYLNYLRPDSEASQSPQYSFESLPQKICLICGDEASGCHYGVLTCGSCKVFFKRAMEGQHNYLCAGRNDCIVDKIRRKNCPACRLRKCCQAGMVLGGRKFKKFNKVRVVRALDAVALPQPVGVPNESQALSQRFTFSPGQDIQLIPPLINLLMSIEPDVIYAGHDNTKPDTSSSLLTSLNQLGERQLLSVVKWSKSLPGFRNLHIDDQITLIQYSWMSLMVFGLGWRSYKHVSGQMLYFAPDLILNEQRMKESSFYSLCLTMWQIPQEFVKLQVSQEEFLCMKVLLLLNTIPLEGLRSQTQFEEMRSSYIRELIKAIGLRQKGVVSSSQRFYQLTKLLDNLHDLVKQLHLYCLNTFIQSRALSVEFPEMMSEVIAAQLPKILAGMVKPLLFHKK

[1] = target: porcine uterine progesterone receptor; details: read-out: IC50 for the porcine uterine progesterone receptor; ref [17]; cited from earlier work

CC(=O)[C@H]1CC[C@H]2[C@@H]3CCC4=CC(=O)CC[C@]4(C)[C@H]3CC[C@]12C [Progesterone]
progestational histologic changes (McPhail Index), positive control (rabbit endometrium): maximal progestational histologic changes were noted
induction of alkaline phosphatase activity (Progesterone Receptor): significantly increased alkaline phosphatase activity

CC(=O)O[C@H]1[C@@H](O)C=C2C=C3OC(=O)C(C)=C3C[C@]2(C)[C@H]1C [PF1092A]
IC50 [1]: 30 nM
